Source: patent US6025358A, “Double prodrugs of potent GP IIb/IIIa antagonists” (G. D. Searle & Co., priority 1999, dated 2000)
Where a name gives a salt, the structure may show the parent alone.

System: platelet aggregation
Assay: Ex vivo screening of oral GP IIb/IIIa inhibitors: inhibition of collagen-induced platelet aggregation in PRP after oral dosing in beagles
Settings: beagle dogs, 5 mpk, collagen agonist; for inhibition in vivo at 5 mg/kg: Canis lupus familiaris, Platelet, n = 2, 32 hours post-dosing, read-out: Percent inhibition of platelet aggregation at 32 hour post-dosing; for % inhibition of platelet aggregation @ 26 hours: n = 2, 26 hours post-dosing
Description: Beagles (8-13 kg, various sources) of either sex are dosed orally with compound in a gelatin capsule. Blood samples are drawn from the cephalic vein using a 23 ga infusion butterfly. Samples for platelet aggregation and drug concentration are taken prior to dosing and 0.5, 1, 2, 3, 5, 7 and 10 hours after dosing and periodically on subsequent days until inhibition of platelet aggregation is less than 30%. Animals are fasted, with ad lib access to water, overnight prior to dosing. For measurement of plasma concentration blood is drawn into a 3 ml tube containing 45 USP units of Na Heparin. Blood is centrifuged at 1700×g for 10 minutes, plasma is aspirated and frozen at -20° C. until analyzed by HPLC. For measurement of platelet aggregation, blood is drawn into 2 2.0 ml tubes containing 0.2 ml of 3.8% Na Citrate. Blood is centrifuged at 250×g for 6 minutes and the platelet rich plasma (PRP) is aspirated. The remaining blood is centrifuged at 1700×g for 10 minutes and platelet poor plasma (PPP) is aspirated. Platelet aggregation is performed in a Bio-Data PAP-4 aggregometer (Bio-Data Corp., Havertown, Pa.) using collagen (100 μg/ml final concentration; Helena Laboratories, Beaumont, Tex.) as the agonist. Briefly, baseline (100% aggregation) is set using PPP; PRP is incubated at 37° C. for one minute without stirring and one minute with stirring, agonist is added and aggregation is allowed to develop for 4 minutes. Percent aggregation post-dosing is compared to percent aggregation pre-dosing to determine percent inhibition.
Percent inhibition of platelet aggregation at 32 hour post-dosing in
beagle dogs (5 mpk, n = 2)

| Compound | inhibition in vivo at 5 mg/kg [%] | % inhibition of platelet aggregation @ 26 hours [%] |
| --- | --- | --- |
| CC(C)OC(=O)CCNC(=O)N[C@H]1CCN(c2ccc(C(N)=NO)cc2)C1=O [1(b), N-[[[(3S)-1-[4-[(hydroxyamino)iminomethyl]phenyl]-2-oxo-3-pyrrolidinyl]amino]carbonyl]-β-alanine 1-methylethyl ester monohydrochloride] | 71 | – |
| CCCOC(=O)CCNC(=O)N[C@H]1CCN(c2ccc(C(N)=NO)cc2)C1=O [1(c), N-[[[(3S)-1-[4-[(hydroxyamino)iminomethyl]phenyl]-2-oxo-3-pyrrolidinyl]amino]carbonyl]-β-alanine propyl ester monohydrochloride] | 94 | – |
| CC(C)COC(=O)CCNC(=O)N[C@H]1CCN(c2ccc(C(N)=NO)cc2)C1=O [1(d), N-[[[(3S)-1-[4-[(hydroxyamino)iminomethyl]phenyl]-2-oxo-3-pyrrolidinyl]amino]carbonyl]-β-alanine 2-methylpropyl ester monohydrochloride] | 45 | – |
| CC(C)(C)COC(=O)CCNC(=O)N[C@H]1CCN(c2ccc(C(N)=NO)cc2)C1=O [1(f), N-[[[(3S)-1-[4-[(hydroxyamino)iminomethyl]phenyl]-2-oxo-3-pyrrolidinyl]amino]carbonyl]-β-alanine 2,2-dimethylpropyl ester] | 87 | – |
| CCCCCOC(=O)CCNC(=O)N[C@H]1CCN(c2ccc(C(N)=NO)cc2)C1=O [1(h), N-[[[(3S)-1-[4-[(hydroxyamino)iminomethyl]phenyl]-2-oxo-3-pyrrolidinyl]amino]carbonyl]-β-alanine pentyl ester monohydrochloride] | 39 | – |
| COC(=O)CCNC(=O)N[C@H]1CCN(c2ccc(C(=N)NOC(=O)N(C)CCN(C)C)cc2)C1=O.Cl [3(a), N-[[[(3S)-1-[4-(1-imino-5,8-dimethyl-4-oxo-3-oxa-2,5,8-triazanon-1-yl)phenyl]-2-oxo-3-pyrrolidinyl]amino]carbonyl]-β-alanine methyl ester monohydrochloride] | – | 33 |
| COC(=O)CCNC(=O)N[C@H]1CCN(c2ccc(C(=N)NOC(=O)NCCN(C)C)cc2)C1=O [3(b), N-[[[(3S)-1-[4-(1-imino-8-methyl-4-oxo-3-oxa-2,5,8-triazanon-1-yl)phenyl]-2-oxo-3-pyrrolidinyl]amino]carbonyl]-β-alanine methyl ester] | 54 | – |
| CN1CCN(C(=O)ONC(=N)c2ccc(N3CC[C@H](NC(=O)NCCC(=O)OC4CCCCC4)C3=O)cc2)CC1 [3(cc), N-[[[(3S)-1-[4-[imino[[[(4-methyl-1-piperazinyl)carbonyl]oxy]amino]methyl]phenyl]-2-oxo-3-pyrrolidinyl]amino]carbonyl]-β-alanine cyclohexyl ester dihydrochloride monohydrate] | 22 | – |
| CCOC(=O)CCNC(=O)N[C@H]1CCN(c2ccc(C(=N)NOC(=O)N3CCN(C)CC3)cc2)C1=O.Cl.Cl [3(d), N-[[[(3S)-1-[4-[imino[[[(4-methyl-1-piperazinyl)carbonyl]oxy]amino]methyl]phenyl]-2-oxo-3-pyrrolidinyl]amino]carbonyl]-β-alanine ethyl ester dihydrochloride] | – | 88 |
| CCOC(=O)CCNC(=O)N[C@H]1CCN(c2ccc(C(=N)NOC(=O)N(C)CCN(C)C)cc2)C1=O [3(e), N-[[[(3S)-1-[4-(1-imino-5,8-dimethyl-4-oxo-3-oxa-2,5,8-triazanon-1-yl)phenyl]-2-oxo-3-pyrrolidinyl]amino]carbonyl]-β-alanine ethyl ester dihydrochloride] | 54 | – |
| CCOC(=O)CCNC(=O)N[C@H]1CCN(c2ccc(C(=N)NOC(=O)NCCN(C)C)cc2)C1=O [3(f), N-[[[(3S)-1-[4-(1-imino-8-methyl-4-oxo-3-oxa-2,5,8-triazanon-1-yl)phenyl]-2-oxo-3-pyrrolidinyl]amino]carbonyl]-β-alanine ethyl ester monoacetate] | 35 | – |
| CCCCCOC(=O)CCNC(=O)N[C@H]1CCN(c2ccc(C(=N)NOC(=O)N3CCN(C)CC3)cc2)C1=O [3(ff), N-[[[(3S)-1-[4-[imino[[[(4-methyl-1-piperazinyl)carbonyl]oxy]amino]methyl]-phenyl]-2-oxo-3-pyrrolidinyl]amino]carbonyl]-β-alanine pentyl ester dihydrochloride] | 70 | – |
| CCOC(=O)CCNC(=O)N[C@H]1CCN(c2ccc(C(=N)NOC(=O)N(C)CCCN(C)C)cc2)C1=O [3(g), N-[[[(3S)-1-[4-(1-imino-5,9-dimethyl-4-oxo-3-oxa-2,5,9-triazadec-1-yl)phenyl]-2-oxo-3-pyrrolidinyl]amino]carbonyl]-β-alanine ethyl ester dihydrochloride] | 69 | – |
| CC(C)OC(=O)CCNC(=O)N[C@H]1CCN(c2ccc(C(=N)NOC(=O)N3CCN(C)CC3)cc2)C1=O [3(h), N-[[[(3S)-1-[4-[imino[[[(4-methyl-1-piperazinyl)carbonyl]oxy]amino]methyl]phenyl]-2-oxo-3-pyrrolidinyl]amino]carbonyl]-β-alanine 1-methylethyl ester dihydrochloride] | 56 | – |
| CC(C)OC(=O)CCNC(=O)N[C@H]1CCN(c2ccc(C(=N)NOC(=O)NCCN(C)C)cc2)C1=O [3(j), N-[[[(3S)-1-[4-(1-imino-8-methyl-4-oxo-3-oxa-2,5,8-triazanon-1-yl)phenyl]-2-oxo-3-pyrrolidinyl]amino]carbonyl]-β-alanine 1-methylethyl ester monoacetate] | 34 | – |
| CCCOC(=O)CCNC(=O)N[C@H]1CCN(c2ccc(C(=N)NOC(=O)N3CCN(C)CC3)cc2)C1=O [3(l), N-[[[(3S)-1-[4-[imino[[[(4-methyl-1-piperazinyl)carbonyl]oxy]amino]methyl]phenyl]-2-oxo-3-pyrrolidinyl]amino]carbonyl]-β-alanine propyl ester dihydrochloride] | 71 | – |
| CCCOC(=O)CCNC(=O)N[C@H]1CCN(c2ccc(C(=N)NOC(=O)N(C)CCN(C)C)cc2)C1=O [3(m), N-[[[(3S)-1-[4-(1-imino-5,8-dimethyl-4-oxo-3-oxa-2,5,8-triazanon-1-yl)phenyl]-2-oxo-3-pyrrolidinyl]amino]carbonyl]-β-alanine propyl ester dihydrochloride] | 80 | – |
| CCCOC(=O)CCNC(=O)N[C@H]1CCN(c2ccc(C(=N)NOC(=O)NCCN(C)C)cc2)C1=O [3(n), N-[[[(3S)-1-[4-(1-imino-8-methyl-4-oxo-3-oxa-2,5,8-triazanon-1-yl)phenyl]-2-oxo-3-pyrrolidinyl]amino]carbonyl]-β-alanine propyl ester monoacetate monohydrate] | 73 | – |
| CC(C)COC(=O)CCNC(=O)N[C@H]1CCN(c2ccc(C(=N)NOC(=O)N(C)CCN(C)C)cc2)C1=O [3(q), N-[[[(3S)-1-[4-(1-imino-5,8-dimethyl-4-oxo-3-oxa-2,5,8-triazanon-1-yl)phenyl]-2-oxo-3-pyrrolidinyl]amino]carbonyl]-β-alanine 2-methylpropyl ester dihydrochloride] | 57 | – |
| CC(C)COC(=O)CCNC(=O)N[C@H]1CCN(c2ccc(C(=N)NOC(=O)NCCN(C)C)cc2)C1=O [3(r), N-[[[(3S)-1-[4-(1-imino-8-methyl-4-oxo-3-oxa-2,5,8-triazanon-1-yl)phenyl]-2-oxo-3-pyrrolidinyl]amino]carbonyl]-β-alanine 2-methylpropyl ester monoacetate] | 46 | – |
